In the supplement of paper PMC4862054:

What was measured:
Assay in all cases: normalised viability (% of control), CellTiter-Blue; higher = more viable cells (about 100 = DMSO control)
Conditions in all cases: incubation time: 72 h
MFM-223 [1] = test system: MFM-223
Procedure, shortened: (§1)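 Breast cancer cell lines in 20 µl suspension were seeded onto 384-well plates pre-loaded with compound dissolved in 5 µl medium, then incubated 72 h. CellTiter-Blue reagent (2.5 µl) was added for 2 h at 37 °C and fluorescence read at 560/590 nm. Each plate was normalised to vehicle (100) and a positive kill control (0), with Z'-factor quality control. The value is normalised viability at one listed concentration of the series.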

MDA-MB-468 = test system: MDA-MB-468
Procedure, shortened: as §1

MDA-MB-436 = test system: MDA-MB-436
Procedure, shortened: as §1

HCC1599 [2] = test system: HCC1599
Procedure, shortened: as §1

HCC1143 [3] = test system: HCC1143
Procedure, shortened: as §1

CAL-120 = test system: CAL-120
Procedure, shortened: as §1

HCC1937 [4] = test system: HCC1937
Procedure, shortened: as §1

BT-474 = test system: BT-474
Procedure, shortened: as §1

MDA-MB-231 [5] = test system: MDA-MB-231
Procedure, shortened: as §1

HDQ-P1 [6] = test system: HDQ-P1
Procedure, shortened: as §1

Hs578T = test system: Hs578T
Procedure, shortened: as §1

SK-BR-3 [7] = test system: SK-BR-3
Procedure, shortened: as §1

CAL-51 [8] = test system: CAL-51
Procedure, shortened: as §1

DU-4475 [9] = test system: DU-4475
Procedure, shortened: as §1

CAL-85-1 [10] = test system: CAL-85-1
Procedure, shortened: as §1

BT-549 [11] = test system: BT-549
Procedure, shortened: as §1

MDA-MB-453 [12] = test system: MDA-MB-453
Method: (§2)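 DSRT, CellTiter-Blue viability, 72 h incubation. Signal is normalised to DMSO and benzethonium chloride controls. Value is the normalised response at dose 7.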

CAL-148 [13] = test system: CAL-148
Method: as §2

HDQ-P1 [14] = test system: HDQ-P1; remark: listed apart in the source
Method: as §2

CAL-51 [15] = test system: CAL-51; remark: listed apart in the source
Method: as §2

DU-4475 [16] = test system: DU-4475; remark: listed apart in the source
Method: as §2

CAL-85-1 [17] = test system: CAL-85-1; remark: listed apart in the source
Method: as §2

MFM-223 [18] = test system: MFM-223; remark: listed apart in the source
Procedure, shortened: as §1

MDA-MB-453 [19] = test system: MDA-MB-453; remark: listed apart in the source
Procedure, shortened: as §1

CAL-148 [20] = test system: CAL-148; remark: listed apart in the source
Procedure, shortened: as §1

HCC1599 [21] = test system: HCC1599; remark: listed apart in the source
Procedure, shortened: as §1

HCC1143 [22] = test system: HCC1143; remark: listed apart in the source
Procedure, shortened: as §1

HCC1937 [23] = test system: HCC1937; remark: listed apart in the source
Procedure, shortened: as §1

MDA-MB-231 [24] = test system: MDA-MB-231; remark: listed apart in the source
Procedure, shortened: as §1

HDQ-P1 [25] = test system: HDQ-P1; remark: listed apart in the source
Procedure, shortened: as §1

SK-BR-3 [26] = test system: SK-BR-3; remark: listed apart in the source
Procedure, shortened: as §1

CAL-51 [27] = test system: CAL-51; remark: listed apart in the source
Procedure, shortened: as §1

DU-4475 [28] = test system: DU-4475; remark: listed apart in the source
Procedure, shortened: as §1

BT-549 [29] = test system: BT-549; remark: listed apart in the source
Procedure, shortened: as §1

CC[C@]1(O)C[C@H]2CN(CCc3c([nH]c4ccccc34)[C@@](C(=O)OC)(c3cc4c(cc3OC)N(C=O)[C@H]3[C@@](O)(C(=O)OC)[C@H](OC(C)=O)[C@]5(CC)C=CCN6CC[C@]43[C@@H]65)C2)C1 [Vincristine]
Conditions | normalised viability [%]
BT-474, 1000 nM | 55.9
BT-474, 10000 nM | 47.9
BT-549 [11], 1000 nM | 14.6
BT-549 [11], 10000 nM | 20.2
BT-549 [29], 1 nM | 82.7
BT-549 [29], 10 nM | 43.7
CAL-51 [8], 10 nM | 70.6
CAL-51 [8], 100 nM | 18
CAL-51 [15], 100 nM | 27
CAL-51 [15], 1000 nM | 10.3
CAL-51 [27], 0.3 nM | 102
CAL-51 [27], 3 nM | 103
CAL-85-1 [10], 10 nM | 33.4
CAL-85-1 [10], 100 nM | 39.2
CAL-85-1 [17], 100 nM | 43.9
CAL-85-1 [17], 1000 nM | 34.7
CAL-120, 1000 nM | 19.9
CAL-120, 10000 nM | 20.6
CAL-148 [13], 100 nM | 16
CAL-148 [13], 1000 nM | 26
CAL-148 [20], 0.3 nM | 80.4
CAL-148 [20], 3 nM | 85.3
DU-4475 [9], 10 nM | 56
DU-4475 [9], 100 nM | 19.5
DU-4475 [16], 100 nM | 34.1
DU-4475 [16], 1000 nM | 8.18
DU-4475 [28], 0.3 nM | 96.6
DU-4475 [28], 3 nM | 89
HCC1143 [3], 1000 nM | 32.1
HCC1143 [3], 10000 nM | 33.6
HCC1143 [22], 1 nM | 71
HCC1143 [22], 10 nM | 40.7
HCC1599 [2], 1000 nM | 73.7
HCC1599 [2], 10000 nM | 45.7
HCC1599 [21], 1 nM | 84.1
HCC1599 [21], 10 nM | 106
HCC1937 [4], 1000 nM | 13.2
HCC1937 [4], 10000 nM | 16.1
HCC1937 [23], 1 nM | 99.2
HCC1937 [23], 10 nM | 23.1
HDQ-P1 [6], 10 nM | 46.4
HDQ-P1 [6], 100 nM | 43.8
HDQ-P1 [14], 100 nM | 36.1
HDQ-P1 [14], 1000 nM | 43.1
HDQ-P1 [25], 0.3 nM | 100
HDQ-P1 [25], 3 nM | 96.4
Hs578T, 1000 nM | 12.7
Hs578T, 10000 nM | 15.9
MDA-MB-231 [5], 1000 nM | 14.4
MDA-MB-231 [5], 10000 nM | 14.5
MDA-MB-231 [24], 1 nM | 73.8
MDA-MB-231 [24], 10 nM | 27.5
MDA-MB-436, 1000 nM | 30.2
MDA-MB-436, 10000 nM | 50.3
MDA-MB-453 [12], 100 nM | 34.3
MDA-MB-453 [12], 1000 nM | 36.4
MDA-MB-453 [19], 0.3 nM | 112
MDA-MB-453 [19], 3 nM | 65
MDA-MB-468, 1000 nM | 41.1
MDA-MB-468, 10000 nM | 38.4
MFM-223 [1], 1000 nM | 27.9
MFM-223 [1], 10000 nM | 20.5
MFM-223 [18], 1 nM | 91.1
MFM-223 [18], 10 nM | 85.5
SK-BR-3 [7], 1000 nM | 16.6
SK-BR-3 [7], 10000 nM | 16.8
SK-BR-3 [26], 1 nM | 33.8
SK-BR-3 [26], 10 nM | 15.9
